The test system of experiment [1] is mTR-GCCG. The experiment is classed as biochemical, mouse. The settings on record: mTR-GCCG versus mTR-GCUG.
The test system of experiment [2] is mTR-GCCG. The settings on record: for Activity lower than that of the wild type enzyme: Sec to Cys mutant versus WT, pH 7.0.

Regarding `OC[C@H]1O[C@H]([S-])[C@H](O)[C@@H](O)[C@@H]1O.[Au+]` [aurothioglucose], the “IC50 increase on mutation of Sec to Cys” value in the experiment on mTR-GCCG [1] is recorded as 1.7 fold.

For `CC(=O)OC[C@H]1O[C@@H]([S-])[C@H](OC(C)=O)[C@@H](OC(C)=O)[C@@H]1OC(C)=O.CCP(CC)CC.[Au+]` [auranofin], in the experiment with mTR-GCCG [1], the “IC50 increase on mutation of Sec to Cys” value is 4 fold.

As for `O=[Se]([O-])[O-].[Na+].[Na+]` [selenite, sodium selenite], the “Activity lower than that of the wild type enzyme” value in the experiment on mTR-GCCG [2] was ~ 2 fold. On to `O=C(O)CCCC[C@@H]1CCSS1` [Lipoic Acid, lipoic acid], for which the “Km increase in the Cys2 mutant” value in the experiment on mTR-GCCG [2] (versus full-length WT enzyme) came out at 2.3 fold.

`N[C@@H](C[Se][Se]C[C@H](N)C(=O)O)C(=O)O` [selenocystine]: in the experiment on mTR-GCCG [2], the “Activity lower than that of the wild type enzyme” value was 3.7 fold.

The values above are taken from article PMC2754045 (Biochemistry, 2009).
